In US12295997B2, “Prostate neoantigens and their uses” (Janssen Biotech, Inc., priority 2020, dated 2025):

What was measured:
[1] = system: CD8+ and CD4+ T cells (autologous CD3+ Pan-T cells isolated from human normal PBMCs); assay: Exogenous autologous normal donor restimulation assay (15-mer overlapping peptide pools on CD1c+ dendritic cells, TNFα/IFNγ flow cytometry); type: cell-based; details: Table 25, 15-mer overlapping peptide pool
How it was run: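 Autologous CD3+ Pan-T cells from normal donors were co-cultured 12 days with irradiated CD1c+ DCs pulsed with 15-mer overlapping neoantigen peptide pools at 2.5–10 μg/mL, with IL-15 and IL-2 support. Cells were restimulated on day 11, then TNFα/IFNγ double-positive CD8+ and CD4+ frequencies read by flow. Positive means ≥3-fold over DMSO and ≥0.01%.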

[2] = system: CD8+ T cells in PBMCs from human patients with metastatic castrate-resistant prostate cancer; assay: Patient PBMC restimulation assay (in vitro immunogenicity, TNFα/IFNγ intracellular flow cytometry); type: cell-based; details: 9-mer peptide; for Maximum fold change over negative control: TNFα+IFNγ+CD8+ T cells, highest across PBMC donors evaluated; for Maximum frequency of TNFα^+IFNγ^+CD8^+ T cells (Percent): greatest frequency among all tested PBMC donors; for Immunogenic: patient PBMC restimulation
Description: PBMCs from human patients with metastatic castrate-resistant prostate cancer were thawed using media (RPMI 1640 supplemented with Glutamax, 10% HI FBS, and 1× Sodium Pyruvate). Cells were counted and plated in a 96 well round bottom microplate at a concentration of 250,000 viable cells per well. Lyophilized peptides were solubilized in 100% DMSO and diluted in media to 10 μg/mL. Neoantigen peptides were added in equal volume to PBMCs for a final concentration of 5 μg/mL. CEF Peptide Pool “Plus” (Cellular Technologies, Ltd.) was utilized as a positive control and DMSO at the same final concentration as the experimental peptides was utilized as a negative control. Human IL-15 (Peprotech) was added to all wells at final concentration of 10 ng/mL.
Plates were incubated at 37° C. (5% CO2) for a total of 13 days. Media was refreshed every 2 days with IL-15 (10 ng/mL final concentration) and IL-2 (R&D systems, 10 IU/mL final concentration). On day 12, PBMCs were re-stimulated with identical experimental peptides or controls, at same concentration as peptide stimulation on Day 1. After 1-hour incubation, protein Inhibitor Cocktail (eBioscience) was added to every well and plate was incubated overnight.
On day 13, cells were stained for intracellular flow cytometry analysis. The cells were washed with PBS and stained with Live/Dead Fixable Aqua Dead Cell stain (Thermo-Fisher). Following the live/dead stain, cells were blocked using Biotin-Free Fc Receptor Blocker (Accurate Chemical & Scientific Corp). Extracellular cellular flow panel ([…] per well in 50 μL) consisted of CD3 PerCP-Cy5.5 (Biolegend), CD4 BV421 (Biolegend), and CD8 APC-Cy7 (Biolegend). After extracellular staining, cells were fixed using Foxp3/fTranscription Factor Staining Buffer Set (eBioscience) and stained for intracellular proteins (1:50 dilution) using TNFα FITC (R&D Systems) and IFNγ BV785 (Biolegend). Cells were washed and resuspended in stain buffer and analyzed using a BD Celesta flow cytometer.
Flow cytometry cell staining analysis was completed using FlowJo v10. Cells were gated on live, singlet, CD3+ cells. The CD8+ T cells were analyzed for TNFα/IFNγ expression and the frequency of double positive TNFα/IFNγ CD8+ T cells was recorded. Responses were assessed to be positive when the frequency of double positive TNFα/IFNγ CD8+ T cells due to stimulation with an experimental peptide was increased greater than or equal to 2-fold over the DMSO only negative control for that patient. Peptides were analyzed in 1 to 7 patient samples.
The 9 mer fragments shown in Table 13 were assessed for their ability to activate T cells using the Patient PBMC restimulation assay described in Example 1 using TNFα and IFNγ production by CD8^+ T cells as a readout. Self-antigens shown in Table 15 were also used in the assays. […] PBMCs from ten patients were evaluated.

HLA-B*08:01 = HLA-B*08:01 (Homo sapiens, UniProt P01889, A93T/A95T/D138N/E176V/E187T/K202T/Q94N/R180D/S35A/V36M/Y33D/Y91F); assay: In vitro binding of neoantigens to class I MHC (UV peptide exchange, HLA class I ELISA)
Description: (§1) The 9 mer peptides identified by bioinformatics analysis were analyzed for their binding propensities to 6 common HLA class I alleles (HLA-A*01:01, A*02:01, A*03:01, A*24:02, B*07:02, B*08:01). The principle of the method is briefly described below and consists of two parts, one involving exchange of peptide with a positive control induced by Ultraviolet (UV) radiation, and the second is an enzyme immunoassay to detect stable HLA-peptide and empty HLA complexes.
(§2) HLA-bound peptides are critical for the stability of the HLA complex. A conditional HLA class I complex was stabilized by an UV-labile peptide utilizing a different peptide (Pos) for each HLA (Pos: HLA-A*01:01: […](SEQ ID NO: 409), HLA-A*02:01: […] (SEQ ID NO: 410), HLA-A*03:01: […] (SEQ ID NO: 411), HLA-A*24:02: […] (SEQ ID NO: 412), HLA-B*07:02: […] (SEQ ID NO: 413), HLA-B*08:01: […] (SEQ ID NO: 414), which could be cleaved by UV irradiation when bound to the HLA molecule. Upon cleavage, the resulting peptide fragments dissociated from the HLA class I complex since their length was insufficient to bind stably to HLA. Under the conditions in which peptide cleavage was performed (neutral pH, on melting ice), the peptide-free HLA complex remained stable.
(§3) The exchange efficiency between the peptide of interest and Pos was analyzed using an HLA class I ELISA. The combined technologies allowed the identification of ligands for an HLA molecule of interest which are potentially immunogenic.
(§4) Exchange control peptide Pos was a high affinity binder to the relevant HLA class I allele while exchange control peptide Neg was a non-binder. The UV control represented UV-irradiation of conditional HLA class I complex in the absence of a rescue peptide.
(§5) The HLA class I ELISA is an enzyme immunoassay based on the detection of beta2-microglobulin (B2M) of (peptide-stabilized) HLA class I complexes. To this end streptavidin was bound onto polystyrene microtiter wells. After washing and blocking, HLA complex present in exchange reaction mixtures or ELISA controls was captured by the streptavidin on the microtiter plate via its biotinylated heavy chain. Non-bound material was removed by washing. Subsequently, horseradish peroxidase (HRP)-conjugated antibody to human B2M was added. The HRP-conjugated antibody binds only to an intact HLA complex present in the microtiter well because unsuccessful peptide exchange results in disintegration of the original UV-sensitive HLA complex upon UV illumination. In the latter case B2M was removed during the washing step. After removal of non-bound HRP conjugate by washing, a substrate solution was added to the wells. A coloured product formed in proportion to the amount of intact HLA complex present in the samples. After the reaction was terminated by the addition of a stop solution, absorbance was measured in a microtiter plate reader. The absorbance was normalized to the absorbance of an exchange control peptide (represents 100%). Suboptimal HLA binding of peptides with a moderate to low affinity for HLA class I molecules can also be detected by this ELISA technique (Rodenko, B et al. (2006) Nature Protocols 1: 1120-32).
(§6) Peptides that had 10% or greater exchange efficiency in one of the 6 HLA alleles were considered for further immunogenicity testing and analysis.
(§7) Binding of select neoepitopes to HLA-A*01:01, HLA-A*02:01, HLA-A*03:01, HLAA*24:02, HLAAB*07:02 and HLA-B*08:01 was evaluated using the assay described in Example 1. […] As a criterion for further evaluation, peptides with an exchange rate of at least 10% with the corresponding Pos peptide for at least one of the 6 HLA alleles that we considered for further evaluation. The exchange rates with the allele specific Pos peptides, of the 24 neoantigens so identified are summarized below in Table 17. Higher percentages correspond to stronger binding to the HLA allele. […]

HLA-B*07:02 = HLA-B*07:02 (Homo sapiens, UniProt P01889); assay: as above; details: 100% = same binding as positive control peptide
Description: as §1, §2, §3, §4, §5, §6, §7

HLA-A*01:01 = HLA-A*01:01 (Homo sapiens, UniProt P04439, A114D/A174V/A182V/D101N/D185E/E176A/E190D/L180R/Q94H/R68K/S129P/T187R/V100A/V91M/W191G); assay: as above; details: 100% = same binding as positive control peptide
Description: as §1, §2, §3, §4, §5, §6, §7

HLA-A*24:02 = HLA-A*24:02 (Homo sapiens, UniProt P04439, D101N/D140Y/D185E/E176V/E190D/F33S/G103R/G107R/I119L/I121M/I306V/K335N/L105A/L180Q/L300P/N151K/N90K/Q86E/Q94H/R106L/R138H/R89G/T104I/T345S/V100E/W191G/Y123F); assay: as above; details: 100% = same binding as positive control peptide
Description: as §1, §2, §3, §4, §5, §6, §7

HLA-A*03:01 = HLA-A*03:01 (Homo sapiens, UniProt P04439); assay: as above; details: 100% = same binding as positive control peptide
Description: as §1, §2, §3, §4, §5, §6
Binding of select neoepitopes to HLA-A*01:01, HLA-A*02:01, HLA-A*03:01, HLAA*24:02, HLAAB*07:02 and HLA-B*08:01 was evaluated using the assay described in Example 1. […] As a criterion for further evaluation, peptides with an exchange rate of at least 10% with the corresponding Pos peptide for at least one of the 6 HLA alleles that we considered for further evaluation. The exchange rates with the allele specific Pos peptides, of the 24 neoantigens so identified are summarized below in Table 17. Higher percentages correspond to stronger binding to the HLA allele.

[3] = highest frequency across normal donors

GVPGDSTRRAVRRMNTF (listed as Homo sapiens) [Neoantigen P16]
Maximum Fold Change Over Background CD4+ cells ([1]; TNFα+IFNγ+ CD4+ T cells, highest fold change over negative control across normal donors): 2.44 | Maximum Fold Change Over Background CD8+ cells ([1]; TNFα+IFNγ+ CD8+ T cells, highest fold change over negative control across normal donors): 2.44 | Maximum Frequency of TNFα/IFNγ Double Positive CD4+ T cells [1, 3]: 0.039 | Maximum Frequency of TNFα/IFNγ Double Positive CD8+ T cells [1, 3]: 0.039 | Maximum fold change over negative control [2]: 65.82 | Maximum frequency of TNFα^+IFNγ^+CD8^+ T cells (Percent) [2]: 4.620% | Immunogenic [2]: Yes

P77 (FFKRAAEGF) [Peptide P77]
Maximum fold change over negative control [2]: 3.24 | Maximum frequency of TNFα^+IFNγ^+CD8^+ T cells (Percent) [2]: 0.160% | Immunogenic [2]: Yes

P59 (LHPDSGNMVENGCYLRR; listed as Homo sapiens) [Peptide P59]
Maximum fold change over negative control [2]: 10.75 | Maximum frequency of TNFα^+IFNγ^+CD8^+ T cells (Percent) [2]: 3.010% | Immunogenic [2]: Yes

8 (QLIAMDSAI; listed as Homo sapiens) [Peptide 8]
Exch I (%) (HLA-B*08:01; Binding to HLA-B*08:01, UV peptide exchange, replicate I, Pos = 100): 8.0% | Exch II (%) (HLA-B*08:01; Binding to HLA-B*08:01, UV peptide exchange, replicate II, Pos = 100): 7.8% | Average % (HLA-B*08:01; Binding to HLA-B*08:01, average of Exch I and Exch II): 7.9%

P17 (GVPGDSTRRAVRRMNTF; listed as Homo sapiens) [Peptide P17]
Exchange rate with allele specific Pos peptide, HLA-B*07:02 (HLA-B*07:02): 38.7% | Exchange rate with allele specific Pos peptide, HLA-B*08:01 (HLA-B*08:01; 100% = same binding as positive control peptide): 9% | Exchange rate with allele specific Pos peptide, HLA-A*01:01 (HLA-A*01:01): 4.9% | Exchange rate with allele specific Pos peptide, HLA-A*24:02 (HLA-A*24:02): 0.1% | Maximum frequency of TNFα^+IFNγ^+CD8^+ T cells (Percent) [2]: 0.130% | Immunogenic [2]: Yes | Exchange rate with allele specific Pos peptide, HLA-A*03:01 (HLA-A*03:01): 3.8%
